Source: patent US5739111A, “Modulating body/cranial hair growth with derivatives of the α-type melanocyte-stimulating hormone” (Societe L'Oreal S.A., priority 1995, dated 1998)
Where a SMILES comes first, the peptide text is derived from it.

Tested on: hair follicles
Assay: lengthening and survival of hair follicles maintained in vitro
Assay type: cell-based
Set-up: Mean lengthening: unit not given here
Description: Viable in vitro hair follicles were prepared according to the technique described in French Patent Application No. 95-08465, filed July 12, 1995 and assigned to the assignee hereof.
From a scalp biopsy, a rather fine strip of scalp was isolated using a scalpel. The adipose tissue surrounding the follicles was removed with microforceps while avoiding damage to the hair bulb. The follicles were cut out with a scalpel under a microscope in order to separate them from their epidermal and dermal surroundings.
The follicles were then cultured in the wells of Costar-type 24-well plates, at the rate of one follicle per well. Each well contained 0.5 ml of Williams' medium E, to which had been added penicillin and Streptomycin to a final concentration of 50 IU/ml, glutamine to 2 mM, bovine insulin to 0.01 mg/ml and hydrocortisone to 0.04 mg/ml.
The follicles were then measured using a microscope equipped with a micrometric eyepiece.
After 24 hours, the follicles were again measured and those which had lengthened by less than 0.3 divisions of the micrometer, corresponding to 0.16 mm, were discarded.
The five (5) following culturing conditions were tested:
Condition A: Complete Williams' medium E, without peptide.
Condition B: Complete Williams' medium E+10 mM Ac-LPV-NH2.
Condition C: Complete Williams' medium E+1 mM Ac-LPV-N2.
Condition D: Complete Williams' medium E+0.1 mM Ac-LPV-NH2.

[1] = summary in words, versus medium without peptide

## CC(=O)N[C@@H](CCCCN)C(=O)N1CCC[C@H]1C(=O)N[C@H](C(N)=O)C(C)C [Acetyl-Lys-Pro-Val-NH2] (Ac-Lys-Pro-Val-NH2)
1 mM (Conditions C, E) in complete Williams' medium E, day 0
  Mean lengthening: 0.00
1 mM (Conditions C, E), day 0
  % Survival: 100%
1 mM (Conditions C, E), day 1
  % Survival: 100%
  Mean lengthening: 0.38
1 mM (Conditions C, E), day 4
  % Survival: 100%
  Mean lengthening: 1.05
1 mM (Conditions C, E), day 5
  % Survival: 100%
  Mean lengthening: 1.21
1 mM (Conditions C, E), day 6
  % Survival: 100%
  Mean lengthening: 1.28
1 mM (Conditions C, E), day 7
  % Survival: 91%
  Mean lengthening: 1.42
1 mM (Conditions C, E), day 8
  % Survival: 55%
  Mean lengthening: 1.39
1 mM (Conditions C, E), day 11
  % Survival: 36%
  Mean lengthening: 1.70
Condition B, 10 mM in complete Williams' medium E, day 0
  Mean lengthening: 0.00
Condition B, 10 mM, day 0
  % Survival: 100%
Condition B, 10 mM, day 1
  % Survival: 100%
  Mean lengthening: 0.38
Condition B, 10 mM, day 4
  % Survival: 100%
  Mean lengthening: 1.11
Condition B, 10 mM, day 5
  % Survival: 100%
  Mean lengthening: 1.33
Condition B, 10 mM, day 6
  % Survival: 100%
  Mean lengthening: 1.43
Condition B, 10 mM, day 7
  % Survival: 100%
  Mean lengthening: 1.54
Condition B, 10 mM, day 8
  % Survival: 92%
  Mean lengthening: 1.74
Condition B, 10 mM, day 11
  % Survival: 83%
  Mean lengthening: 1.96
Condition B, 10 mM, day 12
  % Survival: 42%
  Mean lengthening: 2.40
Condition D, 0.1 mM in complete Williams' medium E, day 0
  Mean lengthening: 0.00
Condition D, 0.1 mM, day 0
  % Survival: 100%
Condition D, 0.1 mM, day 1
  % Survival: 100%
  Mean lengthening: 0.37
Condition D, 0.1 mM, day 4
  % Survival: 100%
  Mean lengthening: 1.10
Condition D, 0.1 mM, day 5
  % Survival: 100%
  Mean lengthening: 1.22
Condition D, 0.1 mM, day 6
  % Survival: 100%
  Mean lengthening: 1.28
Condition D, 0.1 mM, day 7
  % Survival: 83%
  Mean lengthening: 1.42
Condition D, 0.1 mM, day 8
  % Survival: 50%
  Mean lengthening: 1.58
Condition D, 0.1 mM, day 11
  % Survival: 42%
  Mean lengthening: 2.08
Condition D, 0.1 mM, day 12
  % Survival: 17%
  Mean lengthening: 2.11
[1]
  effect on lengthening of the cultured hair follicles: promoted the lengthening
  effect on survival time of the cultured hair follicles: increased their survival time
